Results reported in patent publication US20250230193A1, “CYCLIC COMPOUND HAVING SELECTIVE KRAS INHIBITORY EFFECT ON HRAS AND NRAS” (CHUGAI SEIYAKU KABUSHIKI KAISHA, priority 2022, published 2025).
*1 amine or outer side, *2 acyl side, *3 side chain or, on linkers, in order; H or OH if unused. Where a SMILES comes first, the peptide text is derived from it. Bridges are numbered along the chain shown (N, C = ends). [ ]: non-standard residue; d: D form. The star is where a group is joined. hPhe(3-Cl-4-CF3) = N[C@@H](CCc1ccc(C(F)(F)F)c(Cl)c1)C(=O)O; NPrPhe(4-CF3) = CCCN[C@@H](Cc1ccc(C(F)(F)F)cc1)C(=O)O; X20 = CCCN([C@@H](CC1CCC(F)(F)CC1)C(=O)[*:2])[*:1]; NMeGly(cPent) = CN[C@H](C(=O)O)C1CCCC1; Pro(4,4-F2) = O=C(O)[C@@H]1CC(F)(F)CN1; NMeD = CN[C@@H](CC(=O)O)C(=O)O; NMeL = CN[C@@H](CC(C)C)C(=O)O; Morpholide = C1CN(*)CCO1; Ac5c = NC1(C(=O)O)CCCC1; Aze = O=C(O)[C@@H]1CCN1; Ac4c = NC1(C(=O)O)CCC1; Sar = CNCC(=O)O

Tests used:
[1] = molecular target: GDP-bound HRAS wild-type protein (Homo sapiens, UniProt P01112); assay: Binding to HRAS by surface plasmon resonance (SPR), Single Cycle Kinetics
[2] = molecular target: GDP-bound NRAS wild-type protein (Homo sapiens, UniProt P01111); assay: Binding to NRAS by surface plasmon resonance (SPR), Single Cycle Kinetics
[3] = SPR, GDP-bound HRAS wild-type vs GDP-bound KRAS wild-type
[4] = SPR, GDP-bound NRAS wild-type vs GDP-bound KRAS wild-type
[5] = KD ratio, GDP-bound HRAS wild-type vs GDP-bound KRAS wild-type, SPR
[6] = KD ratio, GDP-bound NRAS wild-type vs GDP-bound KRAS wild-type, SPR
[7] = KD ratio HRAS/KRAS, class symbols
[8] = KD ratio NRAS/KRAS, class symbols

GDP-bound NRAS wild-type protein, sequence (P01111 whole entry): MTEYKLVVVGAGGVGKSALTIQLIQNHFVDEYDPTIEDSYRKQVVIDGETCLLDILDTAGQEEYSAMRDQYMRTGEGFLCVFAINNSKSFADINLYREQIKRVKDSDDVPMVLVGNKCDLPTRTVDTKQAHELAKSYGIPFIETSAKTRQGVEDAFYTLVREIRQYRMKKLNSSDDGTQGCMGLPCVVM
GDP-bound HRAS wild-type protein, sequence (P01112 whole entry): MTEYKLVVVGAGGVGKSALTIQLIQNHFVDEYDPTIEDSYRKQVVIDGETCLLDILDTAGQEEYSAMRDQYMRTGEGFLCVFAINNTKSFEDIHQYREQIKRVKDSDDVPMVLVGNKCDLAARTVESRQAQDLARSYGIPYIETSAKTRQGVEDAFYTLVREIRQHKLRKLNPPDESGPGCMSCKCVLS

CCC[C@H]1C(=O)N[C@@H]([C@H](C)CC)C(=O)N(C)CC(=O)N(C)[C@H]2C/C=C\CCN(C2=O)[C@@H](Cc2ccc(C)cc2)C(=O)N(C)CC(=O)N[C@@H](CCc2ccc(C(F)(F)F)c(Cl)c2)C(=O)N2C[C@H](OCC)C[C@H]2C(=O)NC2(CC(C)(C)C2)C(=O)N(C)[C@@H](C2CCCC2)C(=O)N(C)[C@H](C(=O)N(C)C)CC(=O)N1C [PP2221]
HRAS/KRAS (ratio of KD value with respect to HRAS to KD value with respect to KRAS) [1, 3]: A (a compound having 10 or more and less than 20 is denoted as A)
NRAS/KRAS (ratio of KD value with respect to NRAS to KD value with respect to KRAS) [2, 4]: A (a compound having 10 or more and less than 20 is denoted as A)

CCOC[C@H]1C(=O)N[C@@H]([C@@H](C)CC)C(=O)N(C)CC(=O)N(C)[C@H]2C/C=C\CCN(C2=O)[C@@H](Cc2ccc(C(F)(F)F)cc2)C(=O)N(C)CC(=O)N[C@@H](CCc2ccc(C(F)(F)F)c(OC)c2)C(=O)N2C[C@@H](C)C[C@H]2C(=O)NC2(CCC2)C(=O)N(C)[C@@H](C2CCCC2)C(=O)N(C)[C@H](C(=O)N(C)CC)CC(=O)N1C [PP2026]
HRAS/KRAS (ratio of KD value for HRAS to KD value for KRAS) [1, 5]: A (a compound having 10 or more and less than 20 is denoted as A)
NRAS/KRAS (ratio of KD value for NRAS to KD value for KRAS) [2, 6]: A (a compound having 10 or more and less than 20 is denoted as A)

CCCN1C(=O)CN(C)C(=O)[C@@H]2CCN2C(=O)[C@H]([C@@H](C)CC)NC(=O)[C@H](CC(C)C)N(C)C(=O)C[C@@H](C(=O)N(C)C)NC(=O)[C@H](C2CCCC2)N(C)C(=O)C2(CCC2)NC(=O)[C@@H]2CC(F)(F)CN2C(=O)[C@H](CCc2ccc(C(F)(F)F)c(Cl)c2)NC(=O)CN(C)C(=O)[C@@H]1Cc1ccc(C(F)(F)F)cc1 [PP0376] ([NMeL]I[Aze][Sar][NPrPhe(4-CF3)][Sar][hPhe(3-Cl-4-CF3)][Pro(4,4-F2)][Ac4c][NMeGly(cPent)]D-NMe2; lactam N-11)
HRAS/KRAS (ratio of KD for GDP-bound HRAS wild-type to KD for KRAS) ([1]; KD ratio HRAS/KRAS, SPR): B (a compound having 3 or more and less than 10 is denoted as B)
NRAS/KRAS (ratio of KD for GDP-bound NRAS wild-type to KD for KRAS) ([2]; KD ratio NRAS/KRAS, SPR): B (a compound having 3 or more and less than 10 is denoted as B)

CCO[C@@H]1C[C@H]2C(=O)NC3(CCC3)C(=O)N(C)[C@@H](C3CCCC3)C(=O)N(C)[C@H](C(=O)N(C)C)CC(=O)N(C)[C@@H](COC)C(=O)N[C@@H]([C@@H](C)CC)C(=O)N(C)CC(=O)N(C)[C@H]3C/C=C\CCN(C3=O)[C@@H](Cc3ccc(C(F)(F)F)cc3)C(=O)N(C)CC(=O)N[C@@H](CCc3cc(F)c(C(F)(F)F)c(F)c3)C(=O)N2C1 [PP1113]
HRAS/KRAS (ratio of KD value with respect to HRAS to KD value with respect to KRAS) [1, 5]: A (a compound having 10 or more and less than 20 is denoted as A)
NRAS/KRAS (ratio of KD value with respect to NRAS to KD value with respect to KRAS) [2, 6]: A (a compound having 10 or more and less than 20 is denoted as A)

CC[C@H](C)[C@@H]1NC(=O)[C@H](COC)N(C)C(=O)C[C@@H](C(=O)N(C)C)N(C)C(=O)[C@H](C2CCCC2)N(C)C(=O)C2(CC(C)(C)C2)NC(=O)[C@@H]2C[C@@H](OC3CCC3)CN2C(=O)[C@H](CCc2ccc(Cl)c(Cl)c2)NC(=O)CN(C)C(=O)[C@H](CC2CCC(F)(F)CC2)N2CC/C=C\C[C@@H](C2=O)N(C)C(=O)CN(C2CC2)C1=O [PP2624]
HRAS/KRAS (ratio of KD value with respect to GDP-bound HRAS wild-type protein to KD value with respect to KRAS) [1, 7]: A (a compound having 10 or more and less than 20 is denoted as A)
NRAS/KRAS (ratio of KD value with respect to GDP-bound NRAS wild-type protein to KD value with respect to KRAS) [2, 8]: A (a compound having 10 or more and less than 20 is denoted as A)

CCC[C@H]1C(=O)N[C@@H]([C@@H](C)CC)C(=O)N(C)CC(=O)N(C)[C@H]2C/C=C\CCN(C2=O)[C@@H](Cc2ccc(C(F)(F)F)cc2)C(=O)N(C)CC(=O)N[C@@H](CCc2cc(F)c(C(F)F)c(F)c2)C(=O)N2C[C@H](OCC)C[C@H]2C(=O)NC2(CC(C)(C)C2)C(=O)N(C)[C@@H](C(CC)CC)C(=O)N(C)[C@H](C(=O)N(C)C)CC(=O)N1C [PP2781]
HRAS/KRAS (ratio of KD value with respect to GDP-bound HRAS wild-type protein to KD value with respect to KRAS) [1, 7]: A (a compound having 10 or more and less than 20 is denoted as A)
NRAS/KRAS (ratio of KD value with respect to GDP-bound NRAS wild-type protein to KD value with respect to KRAS) [2, 8]: AA (a compound having 20 or more is denoted as AA)

CCOC[C@H]1C(=O)N[C@@H]([C@@H](C)CC)C(=O)N(C)CC(=O)N(C)[C@H]2C/C=C\CCN(C2=O)[C@@H](CC2CCC(F)(F)CC2)C(=O)N(C)CC(=O)N[C@@H](CCc2ccc(C(F)(F)F)c(OC)c2)C(=O)N2C[C@H](OCC)C[C@H]2C(=O)NC2(CC(C)(C)C2)C(=O)N(C)[C@@H](C(CC)CC)C(=O)N(C)[C@H](C(=O)N(C)C)CC(=O)N1C [PP2446]
HRAS/KRAS (ratio of KD value with respect to HRAS to KD value with respect to KRAS) [1, 3]: A (a compound having 10 or more and less than 20 is denoted as A)
NRAS/KRAS (ratio of KD value with respect to NRAS to KD value with respect to KRAS) [2, 4]: A (a compound having 10 or more and less than 20 is denoted as A)

CCCN1C(=O)CN(C)C(=O)CN(C)C(=O)[C@H]([C@@H](C)CC)NC(=O)[C@H](CC(C)C)N(C)C(=O)C[C@@H](C(=O)N2CCOCC2)N(C)C(=O)[C@H](C2CCCC2)N(C)C(=O)C2(CCCC2)NC(=O)[C@@H]2CCCN2C(=O)[C@H](CCc2ccc(C(F)(F)F)c(Cl)c2)NC(=O)CN(C)C(=O)[C@@H]1CC1CCC(F)(F)CC1 [PP0526] ([NMeL]I[Sar][Sar][X20][Sar][hPhe(3-Cl-4-CF3)]P[Ac5c][NMeGly(cPent)][NMeD]-Morpholide; lactam N-11)
HRAS/KRAS (ratio of KD value with respect to GDP-bound HRAS wild-type protein to KD value with respect to KRAS) ([1]; KD ratio HRAS/KRAS, SPR): C (A compound having a KD ratio of 0.1 or more and less than 3 is denoted as C)
NRAS/KRAS (ratio of KD value with respect to GDP-bound NRAS wild-type protein to KD value with respect to KRAS) ([2]; KD ratio NRAS/KRAS, SPR): B (a compound having 3 or more and less than 10 is denoted as B)
